Measured values as given in ChEMBL document CHEMBL1124720, “4'-[(4-Piperidyl)carbonyl]methanesulfonanilides as potent, selective, bioavailable class III antiarrhythmic agents” (J Med Chem, 1990).
Active and inactive are the calls of the source. No cut-off for these calls is given here.

Tests used:
[1] = tested on: Canis familiaris; test: Percent change in Heart rate after intravenous administration of 0.003 mg/kg in Anesthetized Dogs; format: functional, Canis lupus familiaris
[2] = tested on: Canis familiaris; test: Percent change in Mean Blood pressure after intravenous administration of 0.01 mg/kg in Anesthetized Dogs; format: functional, Canis lupus familiaris
[3] = tested on: Canis familiaris; test: Percent change in Mean Blood pressure after intravenous administration of 0.03 mg/kg in Anesthetized Dogs; format: functional, Canis lupus familiaris
[4] = tested on: Canis familiaris; test: Percent change in Heart rate after intravenous administration of 0.01 mg/kg in Anesthetized Dogs; format: functional, Canis lupus familiaris
[5] = tested on: Canis familiaris; test: Percent change in Heart rate after intravenous administration of 0.03 mg/kg in Anesthetized Dogs; format: functional, Canis lupus familiaris
[6] = tested on: Canis familiaris; test: Percent change in Effective refractory period after intravenous administration of 0.003 mg/kg in Anesthetized Dogs; format: functional, Canis lupus familiaris
[7] = tested on: Canis familiaris; test: Percent change in Effective refractory period after intravenous administration of 0.01 mg/kg in Anesthetized Dogs; format: functional, Canis lupus familiaris
[8] = tested on: Canis familiaris; test: Percent change in Effective refractory period after intravenous administration of 0.03 mg/kg in Anesthetized Dogs; format: functional, Canis lupus familiaris
[9] = species: Cavia porcellus; test: Concentration (0.1-10 uM) that causes 10% prolongation in the action potential duration at 90% […] in Guinea pig right ventricular papillary muscles; format: functional, Muscle tissue
[10] = Half life of beta-elimination phase in plasma after oral administration of 10-50 mg/kg in conscious dogs; Range is 1.4-2.1; format: ADME, organism-based, Canis lupus familiaris; conditions: dog
[11] = tested on: Canis familiaris; test: Percent change in Mean Blood pressure after intravenous administration of 0.1 mg/kg in Anesthetized Dogs; format: functional, Canis lupus familiaris
[12] = tested on: Canis familiaris; test: Percent change in rate of left ventricular pressure after intravenous administration of 0.01 mg/kg in Anesthetized Dogs; format: functional, Canis lupus familiaris, Heart left ventricle
[13] = tested on: Canis familiaris; test: Percent change in rate of left ventricular pressure after intravenous administration of 0.03 mg/kg in Anesthetized Dogs; format: functional, Canis lupus familiaris, Heart left ventricle
[14] = tested on: Canis familiaris; test: Percent change in rate of left ventricular pressure after intravenous administration of 0.1 mg/kg in Anesthetized Dogs; format: functional, Canis lupus familiaris, Heart left ventricle
[15] = tested on: Canis familiaris; test: Percent change in QTc interval after intravenous administration of 0.03 mg/kg in Anesthetized Dogs; format: functional, Canis lupus familiaris
[16] = tested on: Canis familiaris; test: Percent change in QTc interval after intravenous administration of 0.1 mg/kg in Anesthetized Dogs; format: functional, Canis lupus familiaris
[17] = tested on: Canis familiaris; test: Percent change in Heart rate after intravenous administration of 0.1 mg/kg in Anesthetized Dogs; format: functional, Canis lupus familiaris
[18] = tested on: Canis familiaris; test: Percent change in Effective refractory period after intravenous administration of 0.1 mg/kg in Anesthetized Dogs; format: functional, Canis lupus familiaris
[19] = species: Cavia porcellus; test: Concentration (1-100 uM) that causes 10% prolongation in the action potential duration at 90% […] in Guinea pig right ventricular papillary muscles; format: functional, Muscle tissue
[20] = species: Cavia porcellus; test: Maximum percent increase in 90% repolarization at a concentration of 100 uM in Guinea pig right ventricular papillary muscles; format: functional, Muscle tissue
[21] = species: Cavia porcellus; test: The maximum percent change in the maximum rate rise of the action Potential in Guinea pig right ventricular papillary muscles at concentration 1-100 uM; NS=Not significant; format: functional; conditions: Muscle tissue
[22] = tested on: Canis familiaris; test: Percent change in QTc interval after intravenous administration of 0.01 mg/kg in Anesthetized Dogs; format: functional, Canis lupus familiaris
[23] = tested on: Canis familiaris; test: Percent change in Heart rate after intravenous administration of 0.01 mg/kg in Anesthetized Dogs
[24] = Half life of beta-elimination phase in plasma after oral administration of 10-50 mg/kg in conscious dogs; Range is 2.2-2.9; format: ADME, organism-based, Canis lupus familiaris; conditions: dog
[25] = species: Cavia porcellus; test: The maximum percent change in the maximum rate rise of the action Potential in Guinea pig right ventricular papillary muscles at concentration 0.1-100 uM; NS=Not significant; format: functional; conditions: Muscle tissue
[26] = species: Cavia porcellus; test: Concentration (0.1-100 uM) that causes 10% prolongation in the action potential duration at 90% […] in Guinea pig right ventricular papillary muscles; format: functional, Muscle tissue
[27] = tested on: Canis familiaris; test: Percent change in Effective refractory period after intravenous administration of 0.01 mg/kg in Anesthetized Dogs
[28] = species: Cavia porcellus; test: Concentration (1-10 uM) that causes 10% prolongation in the action potential duration at 90% […] in Guinea pig right ventricular papillary muscles; format: functional, Muscle tissue
[29] = species: Cavia porcellus; test: Maximum percent increase in 90% repolarization at a concentration of 10 uM in Guinea pig right ventricular papillary muscles; format: functional, Muscle tissue
[30] = species: Cavia porcellus; test: The maximum percent change in the maximum rate rise of the action Potential in Guinea pig right ventricular papillary muscles, at compound concentration 1-10 uM; NS=Not significant; format: functional; conditions: Muscle tissue
[31] = tested on: Canis familiaris; test: Percent change in Mean Blood pressure after intravenous administration of 0.3 mg/kg in Anesthetized Dogs; format: functional, Canis lupus familiaris
[32] = tested on: Canis familiaris; test: Percent change in Mean Blood pressure after intravenous administration of 1 mg/kg in Anesthetized Dogs; format: functional, Canis lupus familiaris
[33] = tested on: Canis familiaris; test: Percent change in Mean Blood pressure after intravenous administration of 3 mg/kg in Anesthetized Dogs; format: functional, Canis lupus familiaris
[34] = tested on: Canis familiaris; test: Percent change in rate of left ventricular pressure after intravenous administration of 0.3 mg/kg in Anesthetized Dogs; format: functional, Canis lupus familiaris, Heart left ventricle
[35] = tested on: Canis familiaris; test: Percent change in rate of left ventricular pressure after intravenous administration of 1 mg/kg in Anesthetized Dogs; format: functional, Canis lupus familiaris, Heart left ventricle
[36] = tested on: Canis familiaris; test: Percent change in QTc interval after intravenous administration of 0.3 mg/kg in Anesthetized Dogs; format: functional, Canis lupus familiaris
[37] = tested on: Canis familiaris; test: Percent change in QTc interval after intravenous administration of 1 mg/kg in Anesthetized Dogs; format: functional, Canis lupus familiaris
[38] = tested on: Canis familiaris; test: Percent change in QTc interval after intravenous administration of 3 mg/kg in Anesthetized Dogs; format: functional, Canis lupus familiaris
[39] = tested on: Canis familiaris; test: Percent change in Heart rate after intravenous administration of 0.3 mg/kg in Anesthetized Dogs; format: functional, Canis lupus familiaris
[40] = tested on: Canis familiaris; test: Percent change in Heart rate after intravenous administration of 1 mg/kg in Anesthetized Dogs; format: functional, Canis lupus familiaris
[41] = tested on: Canis familiaris; test: Percent change in Heart rate after intravenous administration of 3 mg/kg in Anesthetized Dogs; format: functional, Canis lupus familiaris
[42] = tested on: Canis familiaris; test: Percent change in Effective refractory period after intravenous administration of 0.3 mg/kg in Anesthetized Dogs; format: functional, Canis lupus familiaris
[43] = tested on: Canis familiaris; test: Percent change in Effective refractory period after intravenous administration of 1 mg/kg in Anesthetized Dogs; format: functional, Canis lupus familiaris
[44] = tested on: Canis familiaris; test: Percent change in Effective refractory period after intravenous administration of 3 mg/kg in Anesthetized Dogs; format: functional, Canis lupus familiaris
[45] = tested on: Canis familiaris; test: Percent change in rate of left ventricular pressure after intravenous administration of 3 mg/kg in Anesthetized Dogs; format: functional, Canis lupus familiaris, Heart left ventricle

Row | Compound | mBP(delta) [2] [%] | mBP(delta) [3] [%] | HR(delta) [4] [%] | HR(delta) [5] [%] | ERP (delta) [7] [%] | ERP (delta) [8] [%] | mBP(delta) [11] [%] | LV dP/dTmax(delta) [12] [%] | LV dP/dTmax(delta) [13] [%] | LV dP/dTmax(delta) [14] [%] | QTc delta [15] [%] | QTc delta [16] [%] | HR(delta) [17] [%] | ERP (delta) [18] [%] | C10APD90 [19] [µM] | Max APD90 (delta) [20] [%] | Vmax [21] | QTc delta [22] [%] | further results
1 | Cc1cccc(CCN2CCC(C(=O)c3ccc(NS(C)(=O)=O)cc3)CC2)n1.Cl.Cl | -4 | -6 | -20 | -30 | 15 | 24 |  |  |  |  |  |  |  |  |  |  |  |  | HR(delta) [1]: -8%; ERP (delta) [6]: 6%; C10APD90 [9]: 0.13 µM
2 | CS(=O)(=O)Nc1ccc(C(=O)C2CCN(CCc3cccnc3)CC2)cc1.Cl.Cl | -2 | -2 |  | -8 | 6 | 10 | -8 | 8 | 22 | 26 | 13 | 25 | -17 | 19 | 1.51 | 20 | inactive | 5 | half-life [10]: 1.4 h; HR(delta) [23]: -3%
3 | CS(=O)(=O)Nc1ccc(C(=O)C2CCN(CCCc3ccncc3)CC2)cc1.Cl.Cl | 2 | -5 | -6 | -20 |  | 15 | -9 | 7 | 13 | 13 | 15 | 21 | -28 | 19 |  | 33 |  | 7 | half-life [24]: 2.2 h; Vmax [25]: inactive; C10APD90 [26]: 0.19 µM; ERP (delta) [27]: 11%
4 | CCCCCCC[N+](CC)(CC)CCCCc1ccc(Cl)cc1 [CLOFILIUM] |  |  |  |  |  |  |  |  |  |  |  |  |  |  |  |  |  |  | C10APD90 [28]: 1 µM; Max APD90 (delta) [29]: 13%; Vmax [30]: inactive
5 | CC(C)NCC(O)c1ccc(NS(C)(=O)=O)cc1 (stereo not drawn) [SOTALOL] |  |  |  |  |  |  |  |  |  |  |  |  |  |  | 16.3 | 21 | inactive |  | mBP(delta) [31]: 0%; mBP(delta) [32]: -7%; mBP(delta) [33]: -13%; LV dP/dTmax(delta) [34]: -1%; LV dP/dTmax(delta) [35]: -4%; QTc delta [36]: 4%; QTc delta [37]: 11%; QTc delta [38]: 23%; HR(delta) [39]: -6%; HR(delta) [40]: -19%; HR(delta) [41]: -30%; ERP (delta) [42]: 5%; ERP (delta) [43]: 14%; ERP (delta) [44]: 26%; LV dP/dTmax(delta) [45]: 5%
